{
  "source": "patent US20120277298A1",
  "about": "“FLAVANONES-CONTAINING FOOD COMPOSITIONS” (NESTEC S.A., priority 2009, published 2012)",
  "test": "Particle size distribution of hesperidin by laser diffraction (Malvern Mastersizer 2000)",
  "assay_type": "physicochemical",
  "method": "The particle size distribution is observed using a microscopy optic LEICA DMR (mode Differential Interference Contrast and polarisation). The particle size distribution is measured by laser diffraction using a Malvern Mastersizer 2000.",
  "data": [
    {"compound": "COc1ccc([C@@H]2CC(=O)c3c(O)cc(O[C@@H]4O[C@H](CO[C@@H]5O[C@@H](C)[C@H](O)[C@@H](O)[C@H]5O)[C@@H](O)[C@H](O)[C@H]4O)cc3O2)cc1O", "note": "[Commercially available hesperidin, hesperidin]", "values": [
      {"measurement": "% of cumulative distribution of hesperidin particle size below 20 microns", "setting": "0.1% hesperidin in water, Example 1", "result": 40, "unit": "%"},
      {"measurement": "% of cumulative distribution < 20 microns of hesperidin in water", "setting": "hesperidin in water, Example 4", "result": "Average 40%"}
    ]}
  ]
}
